{
  "source": "paper PMC7180948",
  "about": "“New Insights into 4-Anilinoquinazolines as Inhibitors of Cardiac Troponin I–Interacting Kinase (TNNi3K)” (Molecules, 2020)",
  "assay_in_all_cases": "biochemical",
  "parameters_in_all_cases": "KINOMEscan competition binding panel (Eurofins DiscoverX), single concentration, % inhibition",
  "conditions_in_all_cases": "read-out: 7 at 1 µM % inhibition",
  "key": {"[1]": {"target": "T1, ABL1(M351T)-phosphorylated (Homo sapiens, UniProt P00519, M351T)", "T1 construct": "phosphorylated", "how_it_was_run": "(§1)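 A single 1 µM concentration of each compound is screened across upwards of 400 human kinases using the KINOMEscan format.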"}, "[2]": {"target": "T2, ABL1(T315I)-nonphosphorylated (Homo sapiens, UniProt P00519, T315I)", "T2 construct": "nonphosphorylated", "how_it_was_run": "as §1"}, "[3]": {"target": "T3, CDC2L1 (Homo sapiens, UniProt P21127)", "T3 construct": "gene CDK11B", "how_it_was_run": "as §1"}, "[4]": {"target": "T4, DRAK1 (Homo sapiens, UniProt Q9UEE5)", "T4 construct": "gene STK17A", "how_it_was_run": "as §1"}, "[5]": {"target": "EGFR(L747-E749del, A750P) (Homo sapiens, UniProt P00533, A750P/DEL747-749)", "how_it_was_run": "as §1"}, "[6]": {"target": "FGFR3 (Homo sapiens, UniProt P22607)", "how_it_was_run": "as §1"}, "[7]": {"target": "FLT3(K663Q) (Homo sapiens, UniProt P36888, K663Q)", "how_it_was_run": "as §1"}, "[8]": {"target": "GSK3A (Homo sapiens, UniProt P49840)", "how_it_was_run": "as §1"}, "[9]": {"target": "T5, IKK-alpha (Homo sapiens, UniProt O15111)", "T5 construct": "gene CHUK", "how_it_was_run": "as §1"}, "[10]": {"target": "KIT (Homo sapiens, UniProt P10721)", "sequence (P10721 whole entry)": "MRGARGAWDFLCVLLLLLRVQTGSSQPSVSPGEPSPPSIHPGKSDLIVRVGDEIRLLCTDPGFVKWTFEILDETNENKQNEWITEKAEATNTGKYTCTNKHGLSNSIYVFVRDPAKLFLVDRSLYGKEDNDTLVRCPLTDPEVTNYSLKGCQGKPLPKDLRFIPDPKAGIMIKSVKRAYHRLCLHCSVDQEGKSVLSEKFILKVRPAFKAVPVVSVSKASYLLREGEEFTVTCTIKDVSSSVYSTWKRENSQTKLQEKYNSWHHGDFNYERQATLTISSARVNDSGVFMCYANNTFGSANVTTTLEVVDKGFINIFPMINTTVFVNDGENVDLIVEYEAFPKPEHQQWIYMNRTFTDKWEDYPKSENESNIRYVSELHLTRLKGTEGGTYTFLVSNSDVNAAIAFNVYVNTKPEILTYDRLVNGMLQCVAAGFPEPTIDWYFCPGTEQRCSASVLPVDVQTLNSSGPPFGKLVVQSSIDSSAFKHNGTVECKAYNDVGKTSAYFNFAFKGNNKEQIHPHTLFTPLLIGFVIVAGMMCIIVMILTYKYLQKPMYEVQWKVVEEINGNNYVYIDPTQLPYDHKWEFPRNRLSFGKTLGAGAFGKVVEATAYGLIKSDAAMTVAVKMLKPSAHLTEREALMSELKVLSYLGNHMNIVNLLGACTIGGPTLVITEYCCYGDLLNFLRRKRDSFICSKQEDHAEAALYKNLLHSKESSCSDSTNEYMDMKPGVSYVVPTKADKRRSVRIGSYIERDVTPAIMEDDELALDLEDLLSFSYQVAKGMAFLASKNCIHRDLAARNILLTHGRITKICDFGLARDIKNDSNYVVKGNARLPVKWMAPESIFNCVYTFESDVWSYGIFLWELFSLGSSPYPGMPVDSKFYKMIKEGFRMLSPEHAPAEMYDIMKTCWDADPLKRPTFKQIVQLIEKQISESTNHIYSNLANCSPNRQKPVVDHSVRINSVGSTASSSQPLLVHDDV", "how_it_was_run": "as §1"}, "[11]": {"target": "MAP4K3 (Homo sapiens, UniProt Q8IVH8)", "how_it_was_run": "as §1"}, "[12]": {"target": "T6, MEK2 (Homo sapiens, UniProt P36507)", "T6 construct": "gene MAP2K2", "how_it_was_run": "as §1"}, "[13]": {"target": "T7, MEK3 (Homo sapiens, UniProt P46734)", "T7 construct": "gene MAP2K3", "T7 sequence (P46734 whole entry)": "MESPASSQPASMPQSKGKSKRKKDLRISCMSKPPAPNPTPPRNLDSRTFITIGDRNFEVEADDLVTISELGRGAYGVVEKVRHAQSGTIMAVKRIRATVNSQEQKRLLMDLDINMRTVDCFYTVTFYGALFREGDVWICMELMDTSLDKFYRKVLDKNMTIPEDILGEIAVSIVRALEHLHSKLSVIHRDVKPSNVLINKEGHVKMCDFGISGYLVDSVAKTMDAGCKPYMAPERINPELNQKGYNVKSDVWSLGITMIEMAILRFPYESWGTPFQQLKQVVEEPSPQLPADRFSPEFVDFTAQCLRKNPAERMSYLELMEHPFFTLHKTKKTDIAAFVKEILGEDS", "how_it_was_run": "as §1"}, "[14]": {"target": "T8, MLK3 (Homo sapiens, UniProt Q16584)", "T8 construct": "gene MAP3K11", "how_it_was_run": "as §1"}, "[15]": {"target": "T9, NDR1 (Homo sapiens, UniProt Q15208)", "T9 construct": "gene STK38", "how_it_was_run": "as §1"}, "[16]": {"target": "PHKG2 (Homo sapiens, UniProt P15735)", "how_it_was_run": "as §1"}, "[17]": {"target": "PLK4 (Homo sapiens, UniProt O00444)", "sequence (O00444 whole entry)": "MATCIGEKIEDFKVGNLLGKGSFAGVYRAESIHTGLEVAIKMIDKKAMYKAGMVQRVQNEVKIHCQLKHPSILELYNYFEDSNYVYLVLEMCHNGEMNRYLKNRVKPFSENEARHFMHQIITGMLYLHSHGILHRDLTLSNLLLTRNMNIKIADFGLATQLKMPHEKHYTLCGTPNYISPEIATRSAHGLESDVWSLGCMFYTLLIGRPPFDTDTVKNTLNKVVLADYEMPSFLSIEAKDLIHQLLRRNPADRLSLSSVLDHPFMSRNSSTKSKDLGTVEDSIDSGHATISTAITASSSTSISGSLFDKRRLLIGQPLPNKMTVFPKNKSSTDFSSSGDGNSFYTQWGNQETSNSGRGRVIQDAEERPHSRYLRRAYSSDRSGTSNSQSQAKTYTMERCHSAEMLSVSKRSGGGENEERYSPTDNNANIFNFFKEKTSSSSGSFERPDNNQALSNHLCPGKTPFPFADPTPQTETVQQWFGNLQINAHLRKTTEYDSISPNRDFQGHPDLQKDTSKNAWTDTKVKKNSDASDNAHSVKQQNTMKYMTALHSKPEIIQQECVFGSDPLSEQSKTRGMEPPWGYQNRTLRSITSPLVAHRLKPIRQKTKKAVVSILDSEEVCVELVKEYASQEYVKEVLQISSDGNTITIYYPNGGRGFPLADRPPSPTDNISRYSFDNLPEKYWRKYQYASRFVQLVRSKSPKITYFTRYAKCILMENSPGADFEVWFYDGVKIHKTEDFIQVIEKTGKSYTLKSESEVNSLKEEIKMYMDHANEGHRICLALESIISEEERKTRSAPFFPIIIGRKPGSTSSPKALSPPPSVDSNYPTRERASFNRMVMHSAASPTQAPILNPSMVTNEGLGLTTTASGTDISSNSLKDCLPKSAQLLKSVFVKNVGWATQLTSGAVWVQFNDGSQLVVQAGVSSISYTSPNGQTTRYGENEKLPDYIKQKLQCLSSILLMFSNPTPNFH", "how_it_was_run": "as §1"}, "[18]": {"target": "RET (Homo sapiens, UniProt P07949)", "sequence (P07949 whole entry)": "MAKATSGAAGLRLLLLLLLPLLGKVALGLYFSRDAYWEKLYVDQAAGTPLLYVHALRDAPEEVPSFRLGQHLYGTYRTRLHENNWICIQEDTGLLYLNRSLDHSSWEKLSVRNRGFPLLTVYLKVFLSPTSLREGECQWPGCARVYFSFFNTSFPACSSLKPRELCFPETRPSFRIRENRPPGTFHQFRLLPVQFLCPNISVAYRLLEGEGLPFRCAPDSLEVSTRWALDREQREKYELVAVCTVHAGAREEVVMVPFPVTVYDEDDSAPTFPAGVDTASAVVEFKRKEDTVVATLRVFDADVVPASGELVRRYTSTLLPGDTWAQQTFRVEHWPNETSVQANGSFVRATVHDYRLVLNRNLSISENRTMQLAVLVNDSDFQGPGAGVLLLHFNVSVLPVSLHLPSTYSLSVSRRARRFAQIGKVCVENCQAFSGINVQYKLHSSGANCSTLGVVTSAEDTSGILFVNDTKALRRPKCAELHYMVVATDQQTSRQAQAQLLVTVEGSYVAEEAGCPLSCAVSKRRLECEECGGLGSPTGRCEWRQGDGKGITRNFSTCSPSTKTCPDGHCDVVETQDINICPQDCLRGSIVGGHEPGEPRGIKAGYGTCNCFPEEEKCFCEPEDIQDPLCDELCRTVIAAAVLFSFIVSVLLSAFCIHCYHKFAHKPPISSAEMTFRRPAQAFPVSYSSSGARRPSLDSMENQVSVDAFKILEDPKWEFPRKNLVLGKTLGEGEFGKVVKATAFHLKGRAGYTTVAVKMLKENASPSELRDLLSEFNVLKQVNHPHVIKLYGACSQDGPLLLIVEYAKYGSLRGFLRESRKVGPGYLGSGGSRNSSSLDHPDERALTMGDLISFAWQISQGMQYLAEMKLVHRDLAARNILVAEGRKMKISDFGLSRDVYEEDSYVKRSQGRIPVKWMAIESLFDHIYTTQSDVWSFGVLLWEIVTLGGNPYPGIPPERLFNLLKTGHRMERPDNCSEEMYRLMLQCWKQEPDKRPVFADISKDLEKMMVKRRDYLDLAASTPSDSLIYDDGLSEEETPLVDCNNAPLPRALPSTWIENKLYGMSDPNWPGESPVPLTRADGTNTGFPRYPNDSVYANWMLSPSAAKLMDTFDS", "how_it_was_run": "as §1"}, "[19]": {"target": "T10, RSK2(Kin.Dom.1-N-terminal) (Homo sapiens, UniProt P51812)", "T10 construct": "gene RPS6KA3; Kin.Dom.1-N-terminal", "T10 sequence (P51812 whole entry)": "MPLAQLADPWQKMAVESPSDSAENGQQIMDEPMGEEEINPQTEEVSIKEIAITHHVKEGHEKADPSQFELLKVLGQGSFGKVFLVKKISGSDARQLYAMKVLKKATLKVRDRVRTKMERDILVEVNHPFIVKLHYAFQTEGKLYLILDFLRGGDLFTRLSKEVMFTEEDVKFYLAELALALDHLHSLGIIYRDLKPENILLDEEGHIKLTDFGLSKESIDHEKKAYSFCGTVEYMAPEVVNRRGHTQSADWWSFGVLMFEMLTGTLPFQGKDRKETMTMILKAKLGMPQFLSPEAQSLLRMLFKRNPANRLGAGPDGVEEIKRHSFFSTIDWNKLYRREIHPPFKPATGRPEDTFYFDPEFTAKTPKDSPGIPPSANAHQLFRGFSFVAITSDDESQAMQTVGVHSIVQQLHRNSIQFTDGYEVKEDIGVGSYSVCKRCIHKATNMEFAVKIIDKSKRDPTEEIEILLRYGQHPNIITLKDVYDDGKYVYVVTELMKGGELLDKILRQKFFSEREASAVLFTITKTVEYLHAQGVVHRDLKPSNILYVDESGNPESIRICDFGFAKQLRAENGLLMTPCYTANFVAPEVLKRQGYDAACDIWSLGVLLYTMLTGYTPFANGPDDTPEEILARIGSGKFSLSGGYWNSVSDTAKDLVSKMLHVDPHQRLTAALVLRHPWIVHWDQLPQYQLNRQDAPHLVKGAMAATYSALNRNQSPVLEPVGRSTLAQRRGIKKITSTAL", "how_it_was_run": "as §1"}, "[20]": {"target": "SNRK (Homo sapiens, UniProt Q9NRH2)", "how_it_was_run": "as §1"}, "[21]": {"target": "STK39 (Homo sapiens, UniProt Q9UEW8)", "how_it_was_run": "as §1"}, "[22]": {"target": "T11, TRKB (Homo sapiens, UniProt Q16620)", "T11 construct": "gene NTRK2", "T11 sequence (Q16620 whole entry)": "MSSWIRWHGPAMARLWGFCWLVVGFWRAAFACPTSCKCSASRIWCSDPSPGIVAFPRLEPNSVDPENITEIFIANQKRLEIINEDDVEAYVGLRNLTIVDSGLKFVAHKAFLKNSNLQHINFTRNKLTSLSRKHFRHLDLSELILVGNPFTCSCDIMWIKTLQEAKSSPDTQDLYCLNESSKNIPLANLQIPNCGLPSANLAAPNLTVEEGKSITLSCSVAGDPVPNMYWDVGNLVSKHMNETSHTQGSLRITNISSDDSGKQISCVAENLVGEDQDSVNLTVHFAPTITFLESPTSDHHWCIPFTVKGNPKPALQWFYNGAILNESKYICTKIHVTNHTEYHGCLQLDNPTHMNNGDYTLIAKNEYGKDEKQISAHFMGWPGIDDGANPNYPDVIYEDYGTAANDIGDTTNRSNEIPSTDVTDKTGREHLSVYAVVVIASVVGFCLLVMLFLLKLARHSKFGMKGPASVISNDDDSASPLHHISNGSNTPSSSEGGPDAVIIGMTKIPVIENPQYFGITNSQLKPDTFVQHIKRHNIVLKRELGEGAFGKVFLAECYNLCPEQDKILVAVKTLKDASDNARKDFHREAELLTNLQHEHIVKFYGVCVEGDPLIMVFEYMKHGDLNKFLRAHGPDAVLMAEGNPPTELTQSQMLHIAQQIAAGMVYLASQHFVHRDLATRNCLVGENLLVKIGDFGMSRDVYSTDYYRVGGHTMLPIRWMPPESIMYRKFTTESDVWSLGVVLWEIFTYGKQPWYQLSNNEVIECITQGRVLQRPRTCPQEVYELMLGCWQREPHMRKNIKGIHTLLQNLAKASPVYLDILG", "how_it_was_run": "as §1"}, "[23]": {"target": "T12, TYK2(JH2domain-pseudokinase) (Homo sapiens, UniProt P29597)", "T12 construct": "JH2domain-pseudokinase", "how_it_was_run": "as §1"}},
  "data": [
    {"smiles": "CNS(=O)(=O)c1ccc(N(C)C)c(Nc2ncnc3cc(OC)c(OC)cc23)c1", "note": "[compound 7, 3-((6,7-dimethoxyquinazolin-4-yl)amino)-4-(dimethylamino)-N-methylbenzenesulfonamide]", "values": [
      {"measurement": "inhibition at 1 µM", "setting": "[1]", "result": 6, "unit": "%"},
      {"measurement": "inhibition at 1 µM", "setting": "[2]", "result": 33, "unit": "%"},
      {"measurement": "inhibition at 1 µM", "setting": "[3]", "result": 0, "unit": "%"},
      {"measurement": "inhibition at 1 µM", "setting": "[4]", "result": 0, "unit": "%"},
      {"measurement": "inhibition at 1 µM", "setting": "[5]", "result": 0, "unit": "%"},
      {"measurement": "inhibition at 1 µM", "setting": "[6]", "result": 0, "unit": "%"},
      {"measurement": "inhibition at 1 µM", "setting": "[7]", "result": 7, "unit": "%"},
      {"measurement": "inhibition at 1 µM", "setting": "[8]", "result": 0, "unit": "%"},
      {"measurement": "inhibition at 1 µM", "setting": "[9]", "result": 68, "unit": "%"},
      {"measurement": "inhibition at 1 µM", "setting": "[10]", "result": 13, "unit": "%"},
      {"measurement": "inhibition at 1 µM", "setting": "[11]", "result": 0, "unit": "%"},
      {"measurement": "inhibition at 1 µM", "setting": "[12]", "result": 25, "unit": "%"},
      {"measurement": "inhibition at 1 µM", "setting": "[13]", "result": 4, "unit": "%"},
      {"measurement": "inhibition at 1 µM", "setting": "[14]", "result": 0, "unit": "%"},
      {"measurement": "inhibition at 1 µM", "setting": "[15]", "result": 0, "unit": "%"},
      {"measurement": "inhibition at 1 µM", "setting": "[16]", "result": 0, "unit": "%"},
      {"measurement": "inhibition at 1 µM", "setting": "[17]", "result": 7, "unit": "%"},
      {"measurement": "inhibition at 1 µM", "setting": "[18]", "result": 11, "unit": "%"},
      {"measurement": "inhibition at 1 µM", "setting": "[19]", "result": 13, "unit": "%"},
      {"measurement": "inhibition at 1 µM", "setting": "[20]", "result": 14, "unit": "%"},
      {"measurement": "inhibition at 1 µM", "setting": "[21]", "result": 8, "unit": "%"},
      {"measurement": "inhibition at 1 µM", "setting": "[22]", "result": 14, "unit": "%"},
      {"measurement": "inhibition at 1 µM", "setting": "[23]", "result": 0, "unit": "%"}
    ]}
  ]
}
